# Test results published in patent US8063099B2, “Trans-3-aza-bicyclo[3.1.0]hexane derivatives” (Actelion Pharmaceuticals Ltd., priority 2007, dated 2011).
# Like-named read-outs stand apart in the source and are kept apart here.
# What was measured:
# [1] = target: T1, human orexin-1 receptor (Homo sapiens, UniProt O43613); experiment: Intracellular calcium measurements (FLIPR), orexin receptor antagonistic activity; type: cell-based; conditions: CHO cells expressing human orexin-1 receptor, 3 nM orexin-A, read-out: OX1 IC50
# T1 construct: expressed in transfected cells; host or cells: Chinese hamster ovary (CHO) cells, G418 selection
# T1 sequence (O43613 1-425): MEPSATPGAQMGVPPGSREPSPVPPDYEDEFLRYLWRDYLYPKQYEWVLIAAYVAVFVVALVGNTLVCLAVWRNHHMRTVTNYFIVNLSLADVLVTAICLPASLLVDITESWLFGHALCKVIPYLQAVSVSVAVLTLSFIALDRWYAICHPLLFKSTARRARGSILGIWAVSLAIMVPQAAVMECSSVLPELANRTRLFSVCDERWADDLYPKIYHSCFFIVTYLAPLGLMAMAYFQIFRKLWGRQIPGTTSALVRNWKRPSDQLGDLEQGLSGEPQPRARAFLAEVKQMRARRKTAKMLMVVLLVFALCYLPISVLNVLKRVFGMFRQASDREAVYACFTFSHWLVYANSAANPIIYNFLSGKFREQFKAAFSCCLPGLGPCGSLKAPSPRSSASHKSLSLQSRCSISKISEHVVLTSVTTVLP
# Procedure: (§1) The orexin receptor antagonistic activity of the compounds of formula (I) is determined in accordance with one of the following experimental methods.
# (§2) Intracellular Calcium Measurements:
# (§3) Chinese hamster ovary (CHO) cells expressing the human orexin-1 receptor and the human orexin-2 receptor, respectively, are grown in culture medium (Ham F-12 with L-Glutamine) containing 300 μg/ml G418, 100 U/ml penicillin, 100 μg/ml streptomycin and 10% heat inactivated fetal calf serum (FCS). The cells are seeded at 20'000 cells/well into 384-well black clear bottom sterile plates (Greiner). The seeded plates are incubated overnight at 37° C. in 5% CO2.
# (§4) Human orexin-A as an agonist is prepared as 1 mM stock solution in MeOH:water (1:1), diluted in HBSS containing 0.1% bovine serum albumin (BSA), NaHCO3:0.375 g/l and 20 mM HEPES for use in the assay at a final concentration of 3 nM.
# (§5) Antagonists are prepared as 10 mM stock solution in DMSO, then diluted in 384-well plates, first in DMSO, then in HBSS containing 0.1% bovine serum albumin (BSA), NaHCO3: 0.375 g/l and 20 mM HEPES.
# (§6) On the day of the assay, 50 μl of staining buffer (HBSS containing 1% FCS, 20 mM HEPES, NaHCO3: 0.375 g/l, 5 mM probenecid (Sigma) and 3 μM of the fluorescent calcium indicator fluo-4 AM (1 mM stock solution in DMSO, containing 10% pluronic) is added to each well.
# (§7) The 384-well cell-plates are incubated for 50 min at 37° C. in 5% CO2 followed by equilibration at RT for 30-120 min before measurement.
# (§8) Within the Fluorescent Imaging Plate Reader (FLIPR2 or FLIPR Tetra, Molecular Devices), antagonists are added to the plate in a volume of 10 μl/well, incubated for 10 min and finally 10 μl/well of agonist is added. Fluorescence is measured for each well at 1 second intervals, and the height of each fluorescence peak is compared to the height of the fluorescence peak induced by 3 nM orexin-A with vehicle in place of antagonist. For each antagonist, the IC50 value (the concentration of compound needed to inhibit 50% of the agonistic response) is determined. With the FLIPR Tetra, non-optimized and optimized conditions were used. Optimized conditions were achieved by adjustment of pipetting speed and cell splitting regime. The calculated IC50 values of the compounds may fluctuate depending on the daily cellular assay performance. Fluctuations of this kind are known to those skilled in the art.
# [2] = target: T2, human orexin-2 receptor (Homo sapiens, UniProt O43614); experiment: as above; type: cell-based; conditions: CHO cells expressing human orexin-2 receptor, 3 nM orexin-A, read-out: OX2 IC50
# T2 construct: expressed in transfected cells; host or cells: Chinese hamster ovary (CHO) cells, G418 selection
# T2 sequence (O43614 1-444): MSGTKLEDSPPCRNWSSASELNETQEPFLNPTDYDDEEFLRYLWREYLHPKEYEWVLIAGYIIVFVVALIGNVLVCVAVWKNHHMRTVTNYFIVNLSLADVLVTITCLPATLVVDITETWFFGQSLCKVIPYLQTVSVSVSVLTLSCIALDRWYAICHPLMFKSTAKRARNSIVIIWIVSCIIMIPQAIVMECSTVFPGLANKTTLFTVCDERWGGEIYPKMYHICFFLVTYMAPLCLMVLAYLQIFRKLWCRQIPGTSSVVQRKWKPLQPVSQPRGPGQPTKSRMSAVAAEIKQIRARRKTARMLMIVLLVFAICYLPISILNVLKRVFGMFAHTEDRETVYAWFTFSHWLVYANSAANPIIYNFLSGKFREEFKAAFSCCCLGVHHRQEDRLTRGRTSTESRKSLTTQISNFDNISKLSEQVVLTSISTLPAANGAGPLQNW
# Procedure: as §1, §2, §3, §4, §5, §6, §7, §8
# [3] = FLIPR Tetra, non-optimized conditions
# [4] = FLIPR Tetra, optimized conditions
SMILES,IC50 ([1]; FLIPR2) [nM],IC50 ([2]; FLIPR2) [nM],further results
"CCn1nc(C)cc1C(=O)NC[C@@H]1[C@H]2C[C@H]2CN1C(=O)c1nc(C)sc1-c1cccc(Cl)c1 [Example 80, 2-Ethyl-5-methyl-2H-pyrazole-3-carboxylic Acid{(1S,2S,5R)-3-[5-(3-chloro-phenyl)-2-methyl-thiazole-4-carbonyl]-3-aza-bicyclo[3.1.0]hex-2-ylmethyl}-amide]",29,10,–
"Nc1nc(C(=O)N2C[C@@H]3C[C@@H]3[C@H]2CNC(=O)c2nccc3ccccc23)c(-c2cccc(F)c2)s1 [Example 112, Isoquinoline-1-carboxylic Acid{(1S,2S,5R)-3-[2-amino-5-(3-fluoro-phenyl)-thiazole-4-carbonyl]-3-aza-bicyclo[3.1.0]hex-2-ylmethyl}-amide]",115,12,–
"Cn1cc(C(=O)NC[C@@H]2[C@H]3C[C@H]3CN2C(=O)c2nc(N)sc2-c2cccc(F)c2)c2ccccc21 [Example 115, 1-Methyl-1H-indole-3-carboxylic Acid{(1S,2S,5R)-3-[2-amino-5-(3-fluoro-phenyl)-thiazole-4-carbonyl]-3-aza-bicyclo[3.1.0]hex-2-ylmethyl}-amide]",178,48,–
"Cn1nc(C(=O)NC[C@@H]2[C@H]3C[C@H]3CN2C(=O)c2nc(N)sc2-c2cccc(F)c2)c2ccccc21 [Example 117, 1-Methyl-1H-indazole-3-carboxylic Acid{(1S,2S,5R)-3-[2-amino-5-(3-fluoro-phenyl)-thiazole-4-carbonyl]-3-aza-bicyclo[3.1.0]hex-2-ylmethyl}-amide]",80,8,–
"Nc1nc(C(=O)N2C[C@@H]3C[C@@H]3[C@H]2CNC(=O)c2cnc3ccccn23)c(-c2cccc(F)c2)s1 [Example 118, Imidazo[1,2-a]pyridine-3-carboxylic Acid{(1S,2S,5R)-3-[2-amino-5-(3-fluoro-phenyl)-thiazole-4-carbonyl]-3-aza-bicyclo[3.1.0]hex-2-ylmethyl}-amide]",225,41,–
"Cc1c(C(=O)NC[C@@H]2[C@H]3C[C@H]3CN2C(=O)c2nc(N)sc2-c2cccc(F)c2)sc2nccn12 [Example 124, 3-Methyl-imidazo[2,1-b]thiazole-2-carboxylic Acid{(1S,2S,5R)-3-[2-amino-5-(3-fluoro-phenyl)-thiazole-4-carbonyl]-3-aza-bicyclo[3.1.0]hex-2-ylmethyl}-amide]",7030,12,–
"Cc1cc(C)cc(C(=O)NC[C@@H]2[C@H]3C[C@H]3CN2C(=O)c2nc(C)sc2-c2cccc(C)c2)c1 [Example 147, 3,5-Dimethyl-N-[(1S,2S,5R)-3-(2-methyl-5-m-tolyl-thiazole-4-carbonyl)-3-aza-bicyclo[3.1.0]hex-2-ylmethyl]-benzamide]",324,26,–
"Cc1cccc(-c2sc(C)nc2C(=O)N2C[C@@H]3C[C@@H]3[C@H]2CNC(=O)c2cc(Br)ccc2Cl)c1 [Example 148, 5-Bromo-2-chloro-N-[(1S,2S,5R)-3-(2-methyl-5-m-tolyl-thiazole-4-carbonyl)-3-aza-bicyclo[3.1.0]hex-2-ylmethyl]-benzamide]",1080,102,–
"Cc1cccc(-c2sc(C)nc2C(=O)N2C[C@@H]3C[C@@H]3[C@H]2CNC(=O)c2cccc3c2OCC(=O)N3)c1 [Example 169, 3-Oxo-3,4-dihydro-2H-benzo[1,4]oxazine-8-carboxylic Acid[(1S,2S,5R)-3-(2-methyl-5-m-tolyl-thiazole-4-carbonyl)-3-aza-bicyclo[3.1.0]hex-2-ylmethyl]-amide]",> 10000,61,–
"Cc1cccc(-c2sc(C)nc2C(=O)N2C[C@@H]3C[C@@H]3[C@H]2CNC(=O)c2cccc3c2N(C)CCO3)c1 [Example 177, 4-Methyl-3,4-dihydro-2H-benzo[1,4]oxazine-5-carboxylic Acid[(1S,2S,5R)-3-(2-methyl-5-m-tolyl-thiazole-4-carbonyl)-3-aza-bicyclo[3.1.0]hex-2-ylmethyl]-amide]",691,88,–
"N#Cc1ccc(-c2sc(C3CC3)nc2C(=O)N2C[C@@H]3C[C@@H]3[C@H]2CNC(=O)c2cccc(Cl)c2)cc1 [Example 186, 3-Chloro-N-{(1S,2S,5R)-3-[5-(4-cyano-phenyl)-2-cyclopropyl-thiazole-4-carbonyl]-3-aza-bicyclo[3.1.0]hex-2-ylmethyl}-benzamide]",–,–,"IC50 [1, 3]: 3260 nM; IC50 [2, 3]: 296 nM"
"Cc1nc(C(=O)N2C[C@@H]3C[C@@H]3[C@H]2CNC(=O)c2cccc3c2CCO3)c(-c2cccc(C(F)(F)F)c2)s1 [Example 201, 2,3-Dihydro-benzofuran-4-carboxylic acid {(1S,2S,5R)-3-[2-methyl-5-(3-trifluoromethyl-phenyl)-thiazole-4-carbonyl]-3-aza-bicyclo[3.1.0]hex-2-ylmethyl}-amide]",–,–,"IC50 [1, 3]: 673 nM; IC50 [2, 3]: 349 nM"
"CN(C)c1nc(C(=O)N2C[C@@H]3C[C@@H]3[C@H]2CNC(=O)c2scc3c2OCCO3)c(-c2cccc(F)c2)s1 [Example 220, 2,3-Dihydro-thieno[3,4-b][1,4]dioxine-5-carboxylic acid {(1S,2S,5R)-3-[2-dimethylamino-5-(3-fluoro-phenyl)-thiazole-4-carbonyl]-3-aza-bicyclo[3.1.0]hex-2-ylmethyl}-amide]",–,–,"IC50 [1, 3]: 115 nM; IC50 [2, 3]: 48 nM"
"Cc1ccc(-c2ccsc2C(=O)N2C[C@@H]3C[C@@H]3[C@H]2CNC(=O)c2c(C)nc3sccn23)cc1 [Example 222, 6-Methyl-imidazo[2,1-b]thiazole-5-carboxylic acid [(1S,2S,5R)-3-(3-p-tolyl-thiophene-2-carbonyl)-3-aza-bicyclo[3.1.0]hex-2-ylmethyl]-amide]",–,–,"IC50 [1, 4]: 96 nM; IC50 [2, 4]: 79 nM"
"CCn1nc(C)cc1C(=O)NC[C@@H]1[C@H]2C[C@H]2CN1C(=O)c1nc(C2CC2)sc1-c1cccc(C)c1 [Example 237, 2-Ethyl-5-methyl-2H-pyrazole-3-carboxylic acid [(1S,2S,5R)-3-(2-cyclopropyl-5-m-tolyl-thiazole-4-carbonyl)-3-aza-bicyclo[3.1.0]hex-2-ylmethyl]-amide]",–,–,"IC50 [1, 4]: 29 nM; IC50 [2, 4]: 38 nM"
"Cc1cccc(-c2sc(C)nc2C(=O)N2C[C@@H]3C[C@@H]3[C@H]2CNc2ncc(Br)cn2)c1 [Example 244, {(1S,2S,5R)-2-[(5-Bromo-pyrimidin-2-ylamino)-methyl]-3-aza-bicyclo[3.1.0]hex-3-yl}-(2-methyl-5-m-tolyl-thiazol-4-yl)-methanone]",–,–,"IC50 [1, 3]: 51 nM; IC50 [2, 3]: 639 nM"
